Experimental data from US20230417751A1, “ANALYSIS OF PROTEIN KINASES IN LIVE CELLS” (Texas Tech University System, priority 2021, published 2023).

Experiments:
mutant AKT1 (M227G) = molecular target: T1, mutant AKT1 (M227G) (Homo sapiens, UniProt P31749, M227G); assay: Intracellular A*TPγS delivery and thio-phosphorylation assay, cells transfected with mutant AKT1; format: cell-based
T1 construct: mutagenesis by GENEWIZ pcDNA3-myr-HA-AKT1 1036; host or cells: HCT116
Protocol: (§1) Plasmid constructs. Wild type AKT1 plasmid was purchased from Addgene (Addgene plasmid pcDNA3-myr-HA-AKT1 1036). Point mutation as in references (37) of the ATP-binding pocket gatekeeper amino acid (M227G) were introduced by GENEWIZ (New Jersey, USA), with a modified Strategene QuikChange® site-directed mutagenesis method.
(§2) Expression plasmid transfection. The HCT116 cells were plated into […] dishes and transfected at approximately 90% confluence with the specified plasmid (wild type pcDNA3-myr-HA-AKT1 plasmid or the mutant pcDNA3-myr-HA-AKT1 plasmid) using BP-Fectin mammalian cell transfection reagent (BioPioneer, USA) in accordance with the manufacturer's instructions. One untransfected dish was used as a negative control. After 72 hours, cells were washed twice with cold PBS. Transfection efficacy was confirmed by western-blot measurement of the expression of the HA-tagged fusion proteins with the HA tag monoclonal antibody (Thermo Fisher Scientific, USA).
(§3) Intracellular A*TPγS delivery and thio-phosphorylation assays. Control and transfected HCT116 cells were incubated with A*TPγS-loaded LCP nanoparticles for 4 hours. The cells were washed by cold PBS twice and then lysed with RIPA buffer (which contains protease and phosphatase inhibitors) for 30 minutes at 4° C. The cell lysates were treated with 2.5 mM PNBM at room temperature for 1 hour. Then, the PNBM treated cell lysates were analyzed with a western blot assay to measure protein thio-phosphorylation with the anti-thiophosphate ester rabbit monoclonal antibodies (Abcam, USA).
Immunoprecipitation assays. The PNBM-treated cell lysates were pre-cleaned by an off-target antibody. Then the cleaned cell lysates were incubated with 10 μL anti-thiophosphate ester rabbit monoclonal antibody (Abcam, USA) at 4° C. for 12 hours. 100 μL protein G beads (Thermo Fisher Scientific, USA) were mixed under rotary agitation at 4° C. for 4 hours, washed twice by wash buffer, and the beads were collected. […]
(§4) Western blotting assay. First, total protein concentrations of the cell lysates were determined by a BCA protein assay kit (Thermo, USA). […]

AKT2^M-G = molecular target: T2, AKT2^M-G (Homo sapiens, UniProt P31751, M229G); assay: Live cell AKT substrate tagging, cells transfected with AKT2^M-G; format: cell-based; settings: HCT116 cells, AKT^M-G expression vector (AKT1 and AKT2 stated together), A*TPγS delivery
T2 construct: expressed in transfected cells; host or cells: HCT116
T2 sequence (P31751 whole entry M229G): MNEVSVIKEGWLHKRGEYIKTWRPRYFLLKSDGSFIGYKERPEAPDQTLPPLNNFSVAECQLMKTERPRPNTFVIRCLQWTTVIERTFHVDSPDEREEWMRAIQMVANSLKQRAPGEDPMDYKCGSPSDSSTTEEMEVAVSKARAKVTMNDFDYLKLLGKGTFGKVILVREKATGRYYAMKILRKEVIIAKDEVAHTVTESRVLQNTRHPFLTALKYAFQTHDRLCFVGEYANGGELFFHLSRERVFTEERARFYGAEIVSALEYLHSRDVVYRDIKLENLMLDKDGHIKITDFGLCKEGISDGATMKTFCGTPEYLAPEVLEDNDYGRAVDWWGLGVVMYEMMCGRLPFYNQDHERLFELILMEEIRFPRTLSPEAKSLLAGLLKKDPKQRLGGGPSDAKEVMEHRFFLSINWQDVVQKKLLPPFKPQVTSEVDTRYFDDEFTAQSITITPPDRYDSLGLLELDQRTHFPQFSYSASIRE
Protocol: as §3
(§5) Immunoprecipitation assays. The PNBM-treated cell lysates were pre-cleaned by an off-target antibody. Then the cleaned cell lysates were incubated with 10 μL anti-thiophosphate ester rabbit monoclonal antibody (Abcam, USA) at 4° C. for 12 hours. 100 μL protein G beads (Thermo Fisher Scientific, USA) were mixed under rotary agitation at 4° C. for 4 hours, washed twice by wash buffer, and the beads were collected. Then, proteins were captured in the beads and released by elution buffer. The elution buffer was collected and stored at −80° C.
(§6) Western blotting assay. First, total protein concentrations of the cell lysates were determined by a BCA protein assay kit (Thermo, USA). Protein extracts were separated by SDS-PAGE, then transferred onto a nitrocellulose membrane (NC membrane). […]

AKT2 = molecular target: T3, AKT2 (Homo sapiens, UniProt P31751); assay: Live cell AKT substrate tagging, cells transfected with WT AKT2; format: cell-based; settings: HCT116 cells, WT-AKT expression vector (AKT1 and AKT2 stated together), A*TPγS delivery
T3 construct: expressed in transfected cells; host or cells: HCT116
T3 sequence (P31751 whole entry): as the sequence (P31751 whole entry M229G) above, with G229M counted along it
Protocol: as §3, §5, §6

wild type AKT1 [1] = molecular target: T4, wild type AKT1 (Homo sapiens, UniProt P31749); assay: Intracellular A*TPγS delivery and thio-phosphorylation assay, cells transfected with wild type AKT1; format: cell-based; parameters: host or cells: HCT116
Protocol: as §1, §2
Target sequence in this assay (P31749 whole entry): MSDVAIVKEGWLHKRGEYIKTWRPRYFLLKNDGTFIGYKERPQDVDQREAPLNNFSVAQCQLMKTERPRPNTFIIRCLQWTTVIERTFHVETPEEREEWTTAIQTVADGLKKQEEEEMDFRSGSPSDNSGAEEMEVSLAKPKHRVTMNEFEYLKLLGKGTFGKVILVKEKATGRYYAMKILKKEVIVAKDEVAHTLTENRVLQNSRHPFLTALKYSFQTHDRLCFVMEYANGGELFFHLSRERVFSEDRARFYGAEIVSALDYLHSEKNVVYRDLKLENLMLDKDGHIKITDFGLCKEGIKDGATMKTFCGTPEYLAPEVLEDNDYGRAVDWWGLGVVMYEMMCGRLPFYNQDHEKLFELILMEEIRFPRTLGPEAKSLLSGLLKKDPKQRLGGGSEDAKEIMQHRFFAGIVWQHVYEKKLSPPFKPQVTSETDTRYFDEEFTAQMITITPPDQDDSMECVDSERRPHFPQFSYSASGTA
Intracellular A*TPγS delivery and thio-phosphorylation assays. […] Then, the PNBM treated cell lysates were analyzed with a western blot assay to measure protein thio-phosphorylation with the anti-thiophosphate ester rabbit monoclonal antibodies (Abcam, USA). […]
as §4

wild type AKT1 [2] = molecular target: T4, wild type AKT1; settings: in vitro; cited from earlier work
Target sequence in this assay (P31749 whole entry, species assumed): as the sequence (P31749 whole entry) above

Akt1M-G = molecular target: T5, Akt1M-G (Homo sapiens, UniProt P31749, M227G); assay: Preliminary fluorogenic experiment with nanoparticle loaded with TNP-A*TP and alexa-fluo-647-ATP; format: cell-based; settings: nanoparticle with TNP-A*TP and alexa-fluo-647-ATP 10:1
T5 construct: expressed in transfected cells
T5 sequence (P31749 whole entry M227G): as the sequence (P31749 whole entry) above, with M227G counted along it
Protocol: The cells transfected with Akt1M-G or WT Akt1 expression vectors were treated with the nanoparticle. Alexa-fluo-647-ATP signal monitored nanoparticle delivery in all cells (FIG. 10A-D).

[3] = molecular target: AKT1 mutant with enlarged ATP binding pocket (Homo sapiens, UniProt P31749, M227G); settings: cited from earlier work
AKT1 mutant with enlarged ATP binding pocket, sequence (P31749 whole entry M227G): as the sequence (P31749 whole entry) above, with M227G counted along it

T1 sequence (P31749 whole entry M227G): as the sequence (P31749 whole entry) above, with M227G counted along it

N^6-Benzyladenosine-5′-(3-thiotriphosphate) [A*TPγS]
AKT1 auto-thiophosphorylation: HA-tag Western blot of anti-thiophosphate-ester immunoprecipitant (mutant AKT1 (M227G); HCT116 cells, mutant AKT1 vector, A*TPγS-loaded LCP nanoparticle 4 hours, PNBM alkylation): detected
thiophosphorylation of AKT1 substrate IKKalpha: IKKalpha Western blot of anti-thiophosphate-ester immunoprecipitant (mutant AKT1 (M227G); HCT116 cells, mutant AKT1 vector, A*TPγS-loaded LCP nanoparticle, PNBM alkylation): detected
proteins immunoprecipitated by thiophosphate ester antibody (SDS-PAGE, silver blue coomassie stain) (mutant AKT1 (M227G); lysate of mutant-AKT1-expressing HCT116 cells treated with the nanoparticle): immunoprecipitate at high quantities a large number of proteins
thio-phosphorylation by Western blot with alkylated thiophosphate-tag antibody (AKT2^M-G): detected thio-phosphorylation
thio-phosphorylation by Western blot with alkylated thiophosphate-tag antibody (AKT2): not those of WT-AKT transfected cells
AKT1 auto-thiophosphorylation: HA-tag Western blot of anti-thiophosphate-ester immunoprecipitant (wild type AKT1 [1]; HCT116 cells, wild type AKT1 vector, A*TPγS-loaded LCP nanoparticle 4 hours, PNBM alkylation): not detected
proteins immunoprecipitated by thiophosphate ester antibody (SDS-PAGE, silver blue coomassie stain) (wild type AKT1 [1]; lysate of wild-type-AKT1-expressing HCT116 cells treated with the nanoparticle): not from that of wild-type-AKT1-expressing cells

Nc1ncnc2c1ncn2[C@@H]1O[C@H](COP(=O)(O)OP(=O)(O)OP(O)(O)=S)[C@@H](O)[C@H]1O [ATPγS]
utilization by wild type AKT1 to tag substrate GSK3β (wild type AKT1 [2]): can be utilized by wild type AKT1 to tag its substrate GSK3β in vitro

TNP-N^6-Benzyl-ATP [TNP-A*TP]
TNP-A*TP fluorescence signal, subcellular localization (Akt1M-G; Akt1M-G-expressing cells): localized mainly to cell membrane
TNP-A*TP fluorescence signal, specificity (Akt1M-G; cells transfected with Akt1M-G or WT Akt1 vectors): specific to Akt1M-G-expressing cells

O=P(O)(O)OP(=O)(O)OP(=O)(O)OC[C@H]1O[C@@H](n2cnc3c(NCc4ccccc4)ncnc32)[C@H](O)[C@@H]1O [A*TP, N^6-Benzyl-ATP]
binding to AKT1 mutant with enlarged ATP binding pocket [3]: has been shown to bind
